What was measured:
[1] = test system: LARG-RhoA interaction; experiment: LARG-RhoA interaction by co-immunoprecipitation and Western blot in Ang II-stimulated SHR VSMCs; assay type: cell-based, rat
Excerpt: (§1) The culture procedure of the primary cultured vascular smooth muscle cells (VSMCs) used in this example or the following examples is as follows. SHRs were anesthetized with Zoletil 50, and the thoracic aortas were immediately excised. The samples were then carefully cleaned of connective tissue and adherent fat. Each isolated aorta was cut open longitudinally, followed by endothelial removal by gently grazing the intimal surface. The denuded aortas were cut into approximately 2 mm^2 sections and then placed with the intimal side down. The M199 medium supplemented with 20% fetal bovine serum and antibiotics (100 U/ml penicillin and 100 μg/ml streptomycin) were then gently added to cover the tissues without disturbing the orientation of the explants. VSMCs were allowed to grow out from the explants for 7-10 days culture, and the tissues were removed.
The treatment method of the small molecule compounds used in this example or the following examples is as follows. Small molecule compounds were dissolved in pure water to test their effects on the VSMCs. […]
The procedure of cell harvest and protein extraction used in this example or the following examples is as follows. […] The protein concentrations were determined using a BSA Protein Assay kit. […]

[2] = test system: myosin phosphatase target subunit 1 (MYPT1) phosphorylation; experiment: MYPT1 phosphorylation by Western blot in Ang II-stimulated SHR VSMCs; assay type: cell-based, rat
Excerpt: as §1
The treatment method of the small molecule compounds used in this example or the following examples is as follows. Small molecule compounds were dissolved in pure water to test their effects on the VSMCs. Different concentrations of Y16 or the combination of Y16+Rhosin were administered for 24 hours, followed by stimulation with 10^−7M angiotensin II (Ang II) for 10 min. The Y16 concentrations used were as follows: 1 μM, 2.5 μM, 5 μM, 10 μM, 30 μM, 50 μM.
The procedure of cell harvest and protein extraction used in this example or the following examples is as follows. Culture dishes were placed on ice and washed twice with ice-cold phosphate-buffered saline (PBS). All subsequent procedures were performed over ice. […] The protein concentrations were determined using a BSA Protein Assay kit.
The procedure of Western blot analysis used in this example or the following examples is as follows. […] Signals were visualized using a UVP Imaging System (UVP) or with X-ray film, and the results were expressed as the densitometric ratio of target protein/GAPDH or phosphor-MYPT1/total-MYPT1. […]

[3] = test system: SHR primary VSMCs; experiment: MTT assay for cell viability of SHR primary VSMCs; assay type: cell-based, rat; conditions: 1, 2.5, 5, 10, 30, or 50 μmol/L Y16, 24 hours
Experimental: The procedure of 3-(4,5-dimethylthiazol-2-yl)-2,5-diphenyltetrazolium bromide (MTT) assay for cell viability used in this example is as follows. The cytotoxicity results for Y16 or Rhosin were determined using an MTT-based in vitro assay. Briefly, the media from the cell cultures was discarded and carefully aspirated. Next, 50 μL of serum-free media and 50 μL of MTT solution were added into each well. The plate was then incubated at 37° C. for 3 hours. After incubation, 150 μL of MTT solvent (4 mM HCl, 0.1% NP40 in isopropanol) was added into each well. The plate was then wrapped in foil and shaken on an orbital shaker for 15 minutes, and the absorbance was read at OD=590 nm.

[4] = test system: spontaneously hypertensive rats (SHRs); experiment: Physiological signals recording (BP, HR) in anesthetized SHRs after intravenous injection; assay type: in vivo, rat; conditions: for decrease of BP: versus 0 min
Excerpt: According to the present invention, the statistical analysis used in the following examples is described as follows. For the physiological signals recording, the data from different time intervals of each rat was compared with that from before Y16 and Rhosin administration. Considering the differences of physiological conditions among individuals, the BP and HR are not calculated by the absolute value measured, but by the percentage of the BP or HR measured at each time point relative to those measured before administration (0 minutes). All data were representative of at least four independent experiments.
(§2) The animal model used in this example or the following examples is illustrated as follows. The Institutional Animal Care and Use Committee of the Fu Jen Catholic University, New Taipei, Taiwan (Approval No A10660), approved all of the animal procedures and experimental protocols. Male 16-week-old SHRs (body weight range: 350-370 g) were purchased from the National Laboratory Animal Center, Taipei, Taiwan. The animals were housed at a temperature of 21° C. under a 12 h light/dark cycle and fed a regular pellet diet. The animals were divided into three main groups—the Y16 group, the Rhosin group, and the Y16+Rhosin group. Each group was further divided into several subgroups according to the administered Y16 and Rhosin dose. Their concentrations are listed below: Y16 group: 0.2 mg/kg, 1 mg/kg, 5 mg/kg, 10 mg/kg, 20 mg/kg; Rhosin group: 5 mg/kg, 10 mg/kg, 20 mg/kg; Y16+Rhosin group: (Y16, 3 mg+Rhosin, 7 mg)/kg, (Y16, 5 mg+Rhosin, 10 mg)/kg.
(§3) The procedure of physiological signals recording and blood tests used in this example or the following examples is as follows. The rats were anesthetized with Zoletil 50 (30 mg/kg, intraperitoneal injection) and then attached to a physiological signal recording device. The Y16 and Rhosin were administered to them by intravenous injection. Their electrocardiography (ECG), heart rate (HR), and blood pressure (BP) measurements were taken for 90 minutes. After observing and recording the physiological signals, blood was drawn from the rats in an appropriate test tube and stored for subsequent tests for complete blood cell count, liver function and renal function. The rats were then sacrificed. Their heart, lungs, liver, and kidneys were removed and stored in paraformaldehyde for further histological examinations.

[5] = test system: spontaneously hypertensive rats (SHRs); experiment: Blood tests (complete blood cell count, liver function) in SHRs after dosing; assay type: in vivo, rat; conditions: for platelets count (PLC) or white blood cell counts (WBC): significant versus control
Experimental: as §2, §3
The animal model and experimental procedure of this example are the same as those described in Example 6. To observe whether the use of Y16 or Rhosin might have adverse effects or even harm to the animals, the blood of rats was drawn for the blood test after collecting the required physiological signals.

[6] = test system: spontaneously hypertensive rats (SHRs); experiment: Histological examination (HE) of heart, liver, lung and kidney of SHRs; assay type: in vivo, rat; conditions: doses used in the experiments
Experimental: as §3
The procedure of histological examination used in this example is as follows. The tissues were fixed in 4% paraformaldehyde overnight and then embedded in paraffin for histological examination. The transverse sections (4 μm) were incubated at 75˜85° C. for 10 minutes, followed by stained with hematoxylin/eosin (HE), and examined under a light microscope. Severity of lesions was graded according to the methods described by Shackelford et al. (2002). […]

SMILES: Cc1cccc(COc2cccc(/C=C3\C(=O)NN(c4ccccc4)C3=O)c2)c1 [Y16, (E)-4-(3-(3-methylbenzyloxy)benzylidene)-1-phenylpyrazolidine-3,5-dione]
- LARG-RhoA interaction, relative amount of RhoA normalized to GAPDH ([1]; 50 μM Y16, 24 h, then 10^−7M Ang II 10 min, control 0.939±0.121, p<0.001): 0.469±0.074
- inhibition of LARG-RhoA complex formation induced by Ang II ([1]; Y16 1-50 μM, 24 h): dose-dependently inhibited
- phospho-MYPT1 normalized to total-MYPT1 ([2]; 5 μM Y16, 24 h, then 10^−7M Ang II 10 min, control 0.994±0.048, P=0.041): 0.642±0.199
- inhibition of MYPT1 phosphorylation ([2]; Y16 1-50 μM, 24 h): dose-dependent inhibition
- working concentrations required for the effective inhibition of MYPT1 phosphorylation ([2]; lowest concentration with statistically significant difference): 5 µM
- effect on the growth (cell viability) of SHR VSMCs [3]: no conspicuous effect on the growth
- effect on BP ([4]; 0.2 mg/kg iv): no effects on BP
- effect on BP ([4]; 1 mg/kg iv): no effects on BP
- duration of BP decrease ([4]; 5 mg/kg iv): 30 min
- decrease of BP ([4]; 5 mg/kg iv): 21%
- BP as percentage of BP before administration (0 min) ([4]; 5 mg/kg iv, p=0.0081): 79%±13%
- duration of BP decrease ([4]; 10 mg/kg iv): over 60 minutes
- decrease of BP ([4]; 10 mg/kg iv): 21%
- BP as percentage of BP before administration (0 min) ([4]; 10 mg/kg iv, p=0.0007): 79%±12%
- duration of BP decrease ([4]; 20 mg/kg iv): over 60 minutes
- BP as percentage of BP before administration (0 min) ([4]; 20 mg/kg iv, 20 minutes, p=0.0187): 58%±8%
- reduction of HR ([4]; 20 mg/kg iv, for 30 minutes, not statistically significant): 16%
- maximum blood pressure reduction effect ([4]; 20 mg/kg iv, in 20 minutes): 42%
- HR as percentage of HR before administration (0 min) ([4]; 20 mg/kg iv, p=0.1067): 84%±8%
- platelets count (PLC) or white blood cell counts (WBC) ([5]; 0.2 mg/kg iv): slightly high
- platelets count (PLC) or white blood cell counts (WBC) ([5]; 1 mg/kg iv): slightly high
- abnormalities regarding complete blood cell count and liver function ([5]; doses used in the experiments, iv): did not cause any overt abnormalities
- injuries by histological analyses of heart, liver, lungs, and kidneys [6]: did not cause any overt injuries

Reference: US11911377B2, “Method for treating hypertension by using compound” (Fu Jen Catholic University, priority 2021, dated 2024)
